Source: the NIST ThermoML archive (doi:10.1021/acs.jced.5b00346)

Test: molar heat capacity at constant pressure
Settings: Liquid, Large sample (1 g) DSC

CCF [fluoroethane]
molar heat capacity at constant pressure [J/K/mol]
Settings | 2160 kPa | 2580 kPa | 3100 kPa | 3480 kPa | 4030 kPa | 4460 kPa | 4990 kPa | 5490 kPa
305.15 K | 105.01 | 104.34 | 103.9 | 104.19 | 104.67 | 104.39 | 103.81 | 102.94
310.15 K | 107.51 | 106.21 | 106.31 | 106.26 | 105.59 | 105.06 | 105.25 | 104.39
315.15 K | 109.82 | 108.66 | 109 | 108.23 | 107.36 | 106.26 | 106.55 | 105.83
320.15 K | 112.17 | 111.69 | 111.64 | 110.44 | 109.53 | 108.18 | 107.94 | 107.46
325.15 K | – | 114.86 | 114.09 | 112.89 | 111.88 | 110.87 | 109.67 | 109.34
330.15 K | – | 117.79 | 116.59 | 115.92 | 114.57 | 114 | 112.07 | 111.5
335.15 K | – | – | 120.68 | 119.81 | 117.99 | 117.51 | 115.25 | 114.14
340.15 K | – | – | 129.47 | 125.24 | 122.65 | 121.4 | 119.28 | 117.41
345.15 K | – | – | – | 132.6 | 128.7 | 126.06 | 124.23 | 121.69
350.15 K | – | – | – | – | 136.59 | 132.45 | 130.05 | 127.26
355.15 K | – | – | – | – | 148.79 | 142.5 | 136.68 | 134.37
360.15 K | – | – | – | – | – | 159.27 | 147.49 | 142.78
